According to PMC7997411, “Discovery and Optimization of Selective Inhibitors of Meprin α (Part II)” (Pharmaceuticals, 2021):
Values joined by “and” are separate entries in the source; they are usually repeats but may differ in a detail not shown here. Equal entries are not always repeated. Where two headings read alike, the source gives them in different places.

Assays:
[1] = biological target: T1, ADAM17 (Homo sapiens, UniProt P78536); assay: ADAM17 assay; type: biochemical
T1 construct: purchased R&D Systems 930-ADB
T1 sequence (P78536 215-824): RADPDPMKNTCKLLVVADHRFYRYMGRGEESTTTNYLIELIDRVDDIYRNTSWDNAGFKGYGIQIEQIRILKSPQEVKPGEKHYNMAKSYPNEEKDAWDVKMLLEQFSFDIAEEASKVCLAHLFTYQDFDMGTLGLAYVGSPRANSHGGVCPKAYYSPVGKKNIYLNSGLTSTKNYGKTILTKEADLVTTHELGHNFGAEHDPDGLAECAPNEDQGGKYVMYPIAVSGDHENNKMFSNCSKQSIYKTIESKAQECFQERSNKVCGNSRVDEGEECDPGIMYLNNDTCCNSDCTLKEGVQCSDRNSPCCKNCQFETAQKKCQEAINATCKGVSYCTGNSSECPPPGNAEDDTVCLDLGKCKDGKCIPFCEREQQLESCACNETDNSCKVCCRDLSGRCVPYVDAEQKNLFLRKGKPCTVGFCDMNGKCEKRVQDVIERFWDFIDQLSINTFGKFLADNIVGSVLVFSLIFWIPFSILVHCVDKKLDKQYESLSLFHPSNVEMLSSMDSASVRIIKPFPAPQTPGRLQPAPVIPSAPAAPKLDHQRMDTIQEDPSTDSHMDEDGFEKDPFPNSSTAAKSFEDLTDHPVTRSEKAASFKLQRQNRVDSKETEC
Protocol: MMP-1, MMP-2, MMP-8, MMP-9, MMP-10, MMP-13, MMP-14, ADAM10, ADAM17 and Mca-KPLGL-Dpa-AR-NH2 fluorogenic peptide substrate were purchased from R&D Systems (cat # 901-MP, 902-MP, 908-MP, 911-MP, 910-MP, 511-MM, 918-MP, 936-AD, 930-ADB, and ES010, respectively). All common chemicals were purchased from Sigma. NFF449 was purchased from Tocris (cat# 1391) and actinonin was from Sigma-Aldrich, St. Louis, MO, USA (cat# 01809).
Both assays followed the same general protocol. 2.5 µL of 2× enzyme solution (20 nM) in assay buffer (10 mM HEPES, 0.001% Brij-35, pH 7.5) were added to solid bottom black 384 plates (Greiner, cat# 789075). Next, test compounds and pharmacological controls were added to corresponding wells using a 384-pin tool device (V&P Scientific, San Diego). After 30 min incubation at RT, the reactions were started by addition of 2.5 µL of 2× solutions of substrate (R&D Systems cat#: ES010, Mca-KPLGL-Dpa-AR-NH2, 20 µM). Reactions were incubated at RT for 2 h, after which the fluorescence was measured using a Perkin Elmer Viewlux multimode microplate imager (λexcitation = 324 nm, λemission = 393 nm). All compounds were tested in 10-point, 1:3 serial dilutions dose-response format starting with highest concentration of 100 µM. IC50 values were determined using non-linear regression analysis using the GraphPad Prism 8.0 suite of programs.

[2] = biological target: T2, meprin α (Homo sapiens, UniProt Q16819); assay: Meprin α assay in a 384-well plate (fluorogenic substrate Mca-YVADAPK-K(Dnp)); type: biochemical
T2 construct: Strep-tag; made in house; host or cells: BTI-TN-5B1-4 insect cells (baculovirus, amplified in Sf9)
T2 sequence (Q16819 66-746): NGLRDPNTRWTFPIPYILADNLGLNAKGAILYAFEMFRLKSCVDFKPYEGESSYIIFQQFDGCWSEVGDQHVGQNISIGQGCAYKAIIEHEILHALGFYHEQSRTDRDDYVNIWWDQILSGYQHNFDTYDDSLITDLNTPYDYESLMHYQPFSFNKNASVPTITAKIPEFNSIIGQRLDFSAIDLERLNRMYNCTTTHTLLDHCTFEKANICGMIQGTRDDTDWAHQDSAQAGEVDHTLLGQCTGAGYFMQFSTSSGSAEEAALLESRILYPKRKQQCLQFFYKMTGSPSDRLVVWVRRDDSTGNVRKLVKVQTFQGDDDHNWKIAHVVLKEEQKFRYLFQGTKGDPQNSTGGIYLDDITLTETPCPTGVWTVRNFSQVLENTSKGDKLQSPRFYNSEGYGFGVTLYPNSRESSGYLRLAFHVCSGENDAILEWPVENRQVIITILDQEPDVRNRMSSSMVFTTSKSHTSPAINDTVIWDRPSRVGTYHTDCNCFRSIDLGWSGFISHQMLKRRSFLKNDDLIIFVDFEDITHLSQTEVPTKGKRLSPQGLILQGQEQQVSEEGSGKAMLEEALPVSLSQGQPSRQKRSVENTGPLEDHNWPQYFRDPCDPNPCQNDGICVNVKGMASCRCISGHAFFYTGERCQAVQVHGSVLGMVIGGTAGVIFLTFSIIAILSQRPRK
Protocol: Recombinant human meprin α and meprin β were expressed using the Bac-to-Bac expression system (Gibco Life Technologies, Paisley, UK) as described before. Media and supplements were obtained from Gibco Life Technologies. Recombinant Baculoviruses were amplified in adherently growing Spodoptera frugiperda (Sf)9 insect cells at 27 °C in Grace’s insect medium supplemented with 10% fetal bovine serum, 50 units/mL penicillin, and 50 μg/mL streptomycin. Protein expression was performed in 500 mL suspension cultures of BTI-TN-5B1-4 insect cells growing in Express Five SFM supplemented with 4 mM glutamine, 50 units/mL penicillin, and 50 μg/mL streptomycin in Fernbach-flasks using a Multitron orbital shaker (INFORS AG, Bottmingen, Switzerland). Cells were infected at a density of 2 × 10^6 cells/mL with an amplified viral stock at a MOI of ~10. […] Meprins were activated by trypsin, which was removed afterwards by affinity chromatography using a column containing immobilized chicken ovomucoid, a trypsin inhibitor.
Both assays followed the same general protocol. […] After 30 min incubation at RT, the reactions were started by addition of 5 µL of 2× solutions of substrates (20 µM, meprin α Mca-YVADAPK-K(Dnp), and for meprin β Mca-EDEDED-K(Dnp)).

[3] = biological target: T2, meprin α; assay: Kinetic parameters of meprin α mediated proteolysis in the presence of SR24717; type: biochemical
Protocol: Substrate stock solutions were prepared at various concentrations in HTS assay buffer (50 mM HEPES, 0.01% Brij-35, pH 7.5). Assays were conducted by incubating a range of substrate (2–50 µM) and SR24717 concentrations (0–1000 nM) with 1.3 nM meprin α at 25 °C. Fluorescence was measured on a multimode microplate reader Synergy H1 (Biotek Instruments, Winooski, VT, USA) using λexcitation = 324 nm and λemission = 393 nm. Rates of hydrolysis were obtained from plots of fluorescence versus time, using data points from only the linear portion of the hydrolysis curve. The slope from these plots was divided by the fluorescence change corresponding to complete hydrolysis and then multiplied by the substrate concentration to obtain rates of hydrolysis in units of μM/s. Kinetic parameters were calculated by non-linear regression analysis using the GraphPad Prism 8.0 suite of programs.

[4] = tested on: HEK293 (kidney) and BJ (skin fibroblasts) cells; assay: Cytotoxicity, CellTox Green assay; type: cell-based
Protocol: Figure 6 Characterization of SR24717 for effects on cell viability and cytotoxicity. (A) Effect of SR24717 on viability of WM266-4 (skin melanoma), HEK293 (kidney), and BJ (skin fibroblasts) cells. CellTiter Glo™ assay (Promega) was used after 72 h treatment. (B) Effect of SR24717 on viability of HEK293 (kidney) and BJ (skin fibroblasts) cells. The CellTox Green™ assay (Promega) was used. All experiments performed as 10-point 3-fold concentration-response curves in triplicate.

IC50 [1] [nM] | IC50 ([2]; triplicate, ± SD) [nM] | Ki ([3]; global fit to the competitive model of inhibition) [nM] | mode of inhibition of meprin α ([3]; varying substrate concentration) | IC50 [2] [nM] | fold more potent than the HTS hit SR19855 in binding meprin α [2] | meprin α/β fold selectivity (ratio of IC50 values) ([2]; meprin α over meprin β) | extent of meprin α inhibition (in words) ([2]; scale-up batch, higher doses tested, Figure 4A) | SMILES | concentration at which cytotoxicity was observed [4] [µM]
200 ± 20 | 4 | – | – | – | – | – | – | CCCCC[C@H](CC(=O)NO)C(=O)N[C@H](C(=O)N1CCC[C@H]1CO)C(C)C [Actinonin, actinonin, reference compound] | –
> 100000 | 660 ± 30 | 301 | competitive | 490 to 670 | ~ 2 fold | > 100 fold and 106 fold and ~ 106 fold | full meprin α inhibition | COc1cc(OC)nc(SCc2nnc(SCC(=O)NO)n2-c2ccc(N(C)C)cc2)n1 [SR24717] | 100
